We go through 25 molecules from PMC9977316, “The kidney drug transporter OAT1 regulates gut microbiome–dependent host metabolism” (JCI Insight, 2023).

Structures can show the parent of a compound that is named as a salt.

The first data set addresses T1, OAT1 (Mus musculus, UniProt Q8VC69).
T1 construct: from tissue; host or cells: living mice (kidney proximal tubule); Oat1-KO versus WT
T1 sequence (Q8VC69 1-545): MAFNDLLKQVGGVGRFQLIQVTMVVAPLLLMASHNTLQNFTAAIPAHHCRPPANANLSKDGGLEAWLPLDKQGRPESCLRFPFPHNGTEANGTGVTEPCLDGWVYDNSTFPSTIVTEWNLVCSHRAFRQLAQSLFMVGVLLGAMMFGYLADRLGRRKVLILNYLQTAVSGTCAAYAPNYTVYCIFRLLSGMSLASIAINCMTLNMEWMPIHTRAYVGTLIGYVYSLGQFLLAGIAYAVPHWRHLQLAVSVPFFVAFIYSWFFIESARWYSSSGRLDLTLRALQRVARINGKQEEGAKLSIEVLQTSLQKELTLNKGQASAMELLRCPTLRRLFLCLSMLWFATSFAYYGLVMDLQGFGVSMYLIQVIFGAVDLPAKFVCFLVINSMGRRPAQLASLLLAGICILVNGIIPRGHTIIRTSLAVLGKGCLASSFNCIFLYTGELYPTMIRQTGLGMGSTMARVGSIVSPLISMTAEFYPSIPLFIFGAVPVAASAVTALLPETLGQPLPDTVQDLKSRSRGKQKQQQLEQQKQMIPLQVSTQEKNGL
As to the kind of experiment: Serum metabolomics, effect of genotype (Oat1-KO versus WT), 2-way ANOVA. Type of data set: in vivo. Particulars: 2-way ANOVA, loss of Oat1 x microbiome depletion. As for the experimental part: Adult male KO and WT mice were housed in a 12-hour light-dark cycle and allowed ad libitum access to food and water. Oat1-KO mice were generated and maintained as previously described ([49]). Feces were collected from mice weekly in sterile 2 mL centrifuge tubes, flash frozen, and stored at –80°C. Animals were sacrificed by CO2 inhalation, and blood samples were extracted from mice by cardiac puncture. Serum was extracted, and samples were flash frozen and stored at –80°C until further analysis.
Serum samples were shipped on dry ice to Metabolon Inc. for preparation and metabolomics. Per Metabolon Inc., proteins were removed from the serum and 5 fractions were generated for different mass spectrometry methods. […] Peaks were identified and associated with defined compounds based on retention time, mass/charge ratio, and MS/MS spectral data. Quantification of peaks was performed using AUC.
Scaled intensity for each metabolite was normalized to volume, and missing values were imputed with the lowest value for the compound. For all fold-change calculations, scaled intensities were averaged and compared with each other. Statistical comparisons were performed using the Python module, statsmodels (https://www.statsmodels.org/stable/index.html) and were made between groups by 2-way ANOVA following log transformation and FDR correction, with P < 0.05 being considered significant. Enrichment for each superpathway and subpathway was calculated using the number of total metabolites measured and the number of metabolites in each respective superpathway and subpathway, as previously described ([16]).
For the molecule `Cc1ccc(OS(=O)(=O)O)c(N)c1` [2-amino-p-cresol sulfate], the “interaction between genotype and treatment on serum level” value is reported as “impacted by the interaction between the variables”.
With docosahexaenoylcarnitine (C22:6)*, the “interaction between genotype and treatment on serum level” value is “impacted by the interaction between the variables”.

The same data set, now with this note: direction of serum change by loss of Oat1 and by microbiome depletion.
As for 3-methoxycatechol sulfate (2), the Status entry is recorded as “Group 2”.
On the same count and under the same terms, for `OC[C@H]1OC[C@H](O)[C@@H](O)[C@@H]1O` [1,5-anhydroglucitol (1,5-AG)] the value was “Group 1”.
The same measure, in the same setting: for `Cn1cncc1CC(O)C(=O)O` (stereo not shown) [1-methyl-5-imidazolelactate] the value was “Group 1”.
Still for that read-out and setting: for `O=C(O)Cc1cccc2cc[nH]c12` [1H-indole-7-acetic acid] the value was “Group 2”; for `O=C(O)c1c(O)cccc1O` [2,6-dihydroxybenzoic acid], “Group 2”; for `Cc1ccc(OS(=O)(=O)O)c(N)c1` [2-amino-p-cresol sulfate], “Group 2”.
Take `CC(C)C(O)(CC(=O)O)C(=O)O` (stereo not shown) [2-isopropylmalate]: the Status result is given as “Group 4”.
The same measure, in the same setting: the same measure for `O=C(O)CCCC(=O)C(=O)O` [2-oxoadipate]: “Group 4”; for `O=C(O)CCc1ccc(O)cc1` [3-(4-hydroxyphenyl)propionate]: “Group 2”; for `Cn1cncc1C[C@H](N)C(=O)O` [3-methylhistidine]: “Group 2”.
Still for that read-out and setting: for `O=C(O)CCc1ccccc1.O=C(O)CCc1ccccc1` [3-phenylpropionate (hydrocinnamate)] the value was “Group 4”; for `C=CCc1ccc(OS(=O)(=O)O)cc1` [4-allylphenol sulfate], “Group 2”.
Still for that read-out and setting: for `CCc1ccc(OS(=O)(=O)O)cc1` [4-ethylphenyl sulfate] the value was “Group 2”.
For the molecule `COc1ccc(OS(=O)(=O)O)cc1` [4-methoxyphenol sulfate], the Status result was “Group 2”.
Same read-out and setting: the same measure for `CC(CCC[C@@H](C)[C@H]1CC[C@H]2[C@@H]3[C@H](O)CC4=CC(=O)CC[C@]4(C)[C@H]3CC[C@]12C)C(=O)O` (stereo partly shown) [7-HOCA]: “Group 3”; for `C[N+](C)(C)CCCCC(=O)[O-]` [N,N,N-trimethyl-5-aminovalerate]: “Group 2”.
The same measure, in the same setting: the same measure for `C[C@@H](C(=O)O)N(C)C` [N,N-dimethylalanine]: “Group 1”.
Same read-out and setting: for `CC(=O)N[C@@H](CO)C(=O)O` [N-acetylserine] the value was “Group 4”; for `CN1CCC[C@H]1C(=O)O` [N-methylproline], “Group 4”.
Consider `O=C1O[C@H]([C@@H](O)CO)C(OS(=O)(=O)O)=C1O` [ascorbic acid 3-sulfate*], for which the Status entry was “Group 1”.
For the molecule `[H]/N=C(/N)NCC(=O)O` [guanidinoacetate], the Status entry is “Group 3”.

Staying with this data set, now noted: mouse, in vivo.
As to `O=C(O)/C=C/c1ccccc1` [cinnamate], the Status result is given as “Group 4”.

The data set is the same for the next values; noted with them: statistical analysis of the serum metabolome.
With `O=C(O)Cc1c[nH]c2ccc(O)cc12` [5-Hydroxyindoleacetate], the “effect of genotype on serum level” value is on record as “not impacted by either variable”.

For the next data set, the system named is OAT1.
Assay: not given
Particulars: plasma, before vs 5 hours after oral probenecid; cited from earlier work.
Turning to `O=C(O)c1c(O)cccc1O` [2,6-dihydroxybenzoic acid], the “Elevated in plasma of probenecid-treated humans” value (from here on “Elevated in plasma”) was “✓”.
As to `CC(C)C(O)(CC(=O)O)C(=O)O` (stereo not shown) [2-isopropylmalate], the “Elevated in plasma” value is recorded as “✓”.
As to `O=S(=O)(O)Oc1c[nH]c2ccccc12` [3-indoxyl sulfate], the “Elevated in plasma” value is “✓”.
For `COc1ccc(OS(=O)(=O)O)cc1` [4-methoxyphenol sulfate], the “Elevated in plasma” value is reported as “✓”.

Staying with this data set, now noted: plasma; cited from earlier work.
In the case of `O=S(=O)(O)Oc1c[nH]c2ccccc12` [3-indoxyl sulfate], the “plasma level in probenecid treated humans” value is recorded as “significantly elevated in the plasma”.
With `COc1ccc(OS(=O)(=O)O)cc1` [4-methoxyphenol sulfate], the “plasma level in probenecid treated humans” value is “elevated in the plasma”.

The data set is the same for the next values; noted with them: urine, before vs 5 hours after oral probenecid; cited from earlier work.
3-methoxycatechol sulfate (2): the “Decreased in urine of probenecid-treated humans” value (shortened to “Decreased in urine”) is on record as “✓”.
Regarding `O=C(O)c1c(O)cccc1O` [2,6-dihydroxybenzoic acid], the “Decreased in urine” value is “✓”.
`O=C(O)CCCC(=O)C(=O)O` [2-oxoadipate]: the “Decreased in urine” value is on record as “✓”.
Turning to `O=S(=O)(O)Oc1c[nH]c2ccccc12` [3-indoxyl sulfate], the “Decreased in urine” value is recorded as “✓”.
In the case of `C=CCc1ccc(OS(=O)(=O)O)cc1` [4-allylphenol sulfate], the “Decreased in urine” value was “✓”.
For `CCc1ccc(OS(=O)(=O)O)cc1` [4-ethylphenyl sulfate], the “Decreased in urine” value is listed as “✓”.
As to `COc1ccc(OS(=O)(=O)O)cc1` [4-methoxyphenol sulfate], the “Decreased in urine” value is “✓”.

The data set is the same for the next values; noted with them: urine; cited from earlier work.
On to `CCc1ccc(OS(=O)(=O)O)cc1` [4-ethylphenyl sulfate], for which the “urine level in probenecid treated humans” value is listed as “significantly decreased in the urine”.
As for `COc1ccc(OS(=O)(=O)O)cc1` [4-methoxyphenol sulfate], the “urine level in probenecid treated humans” value is reported as “decreased in the urine”.
